Assay results as given in publication PMC10983001, “Development of Cytotoxic GW7604-Zeise’s Salt Conjugates as Multitarget Compounds with Selectivity for Estrogen Receptor- Positive Tumor Cells” (Journal of Medicinal Chemistry, 2024).

Key:
[1] = biological target: T1, ERα ligand-binding domain (Homo sapiens, UniProt P03372); test: TR-FRET ligand binding assay, isolated LBD of ERα
T1 construct: purchased Invitrogen
T1 sequence (P03372 311-547 limits assumed): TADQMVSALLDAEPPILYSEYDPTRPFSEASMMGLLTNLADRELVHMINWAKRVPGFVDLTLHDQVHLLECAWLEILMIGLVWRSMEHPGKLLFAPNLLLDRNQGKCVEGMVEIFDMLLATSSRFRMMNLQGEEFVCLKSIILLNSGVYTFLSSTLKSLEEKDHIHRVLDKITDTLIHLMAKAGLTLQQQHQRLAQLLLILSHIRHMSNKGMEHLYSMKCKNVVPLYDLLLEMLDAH
Description: A modified LanthaScreen TR-FRET alpha/beta assay was performed, according to the manufacturer’s protocol (Invitrogen, Carlsbad, […]), to determine the binding affinity to the isolated LBD. […] Measurements were carried out on a multimode plate reader, Tecan Spark (Tecan, Männedorf, Switzerland). Calculations and visualization were performed with GraphPad Prism 8.0 (GraphPad Software, San Diego, CA, USA).

nuclei of SKBr3 cells = test: Nuclear uptake (platinum by HR-CS-AAS), SKBr3; format: cell-based, human; settings: SKBr3, 20 μM, 24 h
Description: Fluorescence in the nuclei is not detectable. Therefore, the nuclei were analyzed for their platinum content using HR-CS-AAS.[25]
After thawing of the cell/nuclei pellets, they were resuspended in ultrapure water (Siemens LaboStar, Günzburg, Germany; 300 μL) and lyzed with a sonotrode (Bandelin Sonoplus, Berlin, Germany; parameters 20 s, 9 cycles, 80% power). Graphite furnace (GF) AAS was used to quantify the lysates concerning their content of platinum (λ = 265.9450 nm). For this purpose, a contrAA 700 High-Resolution-Continous Source AAS (Analytik Jena, Jena, Germany) was employed, while atomization took place by electrothermal heating of graphite tubes with an inserted platform (Analytik Jena, Jena, Germany). […] The spectrometer was monitored with the ASpect CS software, version 2.3.1.0 (Analytik Jena, Jena, Germany). For all runs, the mean integrated absorbance was determined after three injections of each standard or sample. […] Each cell/nuclei lysate was quantified concerning its protein content following the method of Bradford[71] in order to express the uptake as the amount of compound (pmol) in the lysate relative to its protein mass (mg). […] All standards and lysates were measured in duplicate. After incubating for 5 min at rt, the absorbance (λ = 595 nm) was read on a microplate reader (Tecan Safire 2, Männedorf, Switzerland). […]

[2] = Stability in organic solutions (1H NMR); format: physicochemical; settings: for amount of free ligand: DMF-d7, rt
Description: Furthermore, it needs to be clarified whether organic solvent molecules are capable of ligand exchange reactions at the PtCl3 unit and form corresponding reaction/degradation products of the GW7604-Alk-PtCl3 complexes. Therefore, ^1H NMR experiments were performed with noncoordinating [e.g., acetone-d6, methanol-d4] and coordinating [e.g., acetonitrile-d3 , DMF-d7, dimethyl sulfoxide-d6 (DMSO-d6)] solvents. It should further be assessed whether the solvents are suitable for preparing stock solutions for structural characterization or in vitro testing.
The solutions (concentrations of 4.5–5.0 mM) were stored in NMR tubes at room temperature (rt) after being purged with argon.

CCC(=C(c1ccc(O)cc1)c1ccc(C=CC(=O)OCCC[CH]2[CH2][Pt-]2([Cl])([Cl])[Cl])cc1)c1ccccc1.[K+] (mixture of isomers) [GW7604-Pent-PtCl3, Potassium trichlorido[η^2-(pent-4-en-1-yl (E)-3-(4-((E/Z)-1-(4-hydroxyphenyl)-2-phenylbut-1-en-1-yl)phenyl)acrylate)]platinate(II)]
RBA (ERα) ([1]; RBA(E2) = 100%): 7.29% | IC50 ([1]; read-out: IC50 (ERα), displacement from the LBS): 4.81 nM | platinum content in the nuclei (nuclei of SKBr3 cells): 96 pmol/mg | amount of free ligand ([2]; 9 days): about 33% | amount of free ligand ([2]; 14 days): about 40% | stability in DMSO-d6 ([2]; DMSO-d6, measured after 5 min / immediately after dissolution): only signals of the free GW7604-Pent ligand | time to complete degradation of the complex ([2]; acetonitrile-d3, rt): ≤ 23 days | complex that released the free ligand ([2]; acetonitrile-d3, rt, 4 days): about 25% | complex that released the free ligand ([2]; acetonitrile-d3, rt, 9 days): about 35%
